Measured values reported in US11285156B2, “Substituted piperazines as KRAS G12C inhibitors” (Amgen Inc., priority 2018, dated 2022).

How the values were obtained:
[1] = biological target: GDP-bound KRAS protein (aa 1-169), containing both G12C and C118A amino acid substitutions (Homo sapiens (Human), UniProt P01116, C118A/G12C); test: Coupled nucleotide exchange assay (SOS-mediated nucleotide exchange, AlphaScreen); assay type: biochemical; settings: read-out: Coupled exchange IC50 (5 min; μM); 5 min compound pre-incubation
[2] = tested on: Phosphorylation of ERK1/2 in MIA PaCa-2 cells; test: Phospho-ERK1/2 MSD assay in MIA PaCa-2 cells; assay type: cell-based; settings: Homo sapiens, MIA PaCa-2, 2 h, read-out: p-ERK IC50 (2 h, MiaPaCa-2; μM), 2 h compound treatment, MIA PaCa-2 cells, EGF stimulated
Method in brief: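 Phospho-ERK1/2 measured by MSD electrochemiluminescence kit in RIPA lysates of MIA PaCa-2 cells. Cells were treated with compound titrations for 2 or 4 h at 37 °C, 5% CO2, followed by a 10 min pulse of 10 ng/mL EGF.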

[3] = tested on: Phosphorylation of ERK1/2 in A549 cells; test: Phospho-ERK1/2 MSD assay in A549 cells; assay type: cell-based; settings: Homo sapiens, A549, 2 h, read-out: p-ERK IC50 (2 h, A549; μM), 2 h compound treatment, A549 cells, EGF stimulated
Method in brief: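 MSD electrochemiluminescent read-out of phospho-ERK1/2 in RIPA lysates. Cells in RPMI 1640 with 10% FBS received titrated compound for 2 or 4 h, then 10 ng/mL EGF for 10 min before ice-cold PBS wash and lysis.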

Chain of GDP-bound KRAS protein (aa 1-169), containing both G12C and C118A amino acid substitutions (P01116 other isoform, or with tags, fused parts or gaps G12C/C118A): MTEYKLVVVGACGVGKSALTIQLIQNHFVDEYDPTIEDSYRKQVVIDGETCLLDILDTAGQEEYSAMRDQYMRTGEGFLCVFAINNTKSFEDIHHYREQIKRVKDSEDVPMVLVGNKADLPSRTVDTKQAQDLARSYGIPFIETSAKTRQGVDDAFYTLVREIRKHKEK

Compound	IC50 [1]	IC50 [2]	IC50 [3]
C=CC(=O)N1C[C@H](C)N(c2nc(=O)n(-c3c(C)ccnc3C(C)C)c3nc(-c4ccccc4NC(C)=O)c(Cl)cc23)C[C@H]1C (atropisomer, axis not shown; (M)) [Example 92-18, (M)-N-[2-[6-Chloro-4-[(2S,5R)-2,5-dimethyl-4-prop-2-enoyl-piperazin-1-yl]-1-(2-isopropyl-4-methyl-3-pyridyl)-2-oxo-pyrido[2,3-d]pyrimidin-7-yl]phenyl] acetamide]	0.085 µM	0.17 µM	> 7.5 µM
C=CC(=O)N1C[C@H](C)N(c2nc(=O)n(-c3c(C)ccnc3C(C)C)c3nc(-c4ccccc4N(C)C)c(Cl)cc23)C[C@H]1C (atropisomer, axis not shown; (M)) [Example 92-19, (M)-6-Chloro-7-[2-(dimethylamino)phenyl]-4-[(2S,5R)-2,5-dimethyl-4-prop-2-enoyl-piperazin-1-yl]-1-(2-isopropyl-4-methyl-3-pyridyl)pyrido [2,3-d]pyrimidin-2-one]	0.044 µM	0.027 µM	> 7.5 µM
C=CC(=O)N1C[C@H](C)N(c2nc(=O)n(-c3c(C)ccnc3C(C)C)c3nc(-c4ccccc4C(N)=O)c(Cl)cc23)C[C@H]1C (atropisomer, axis not shown; (M)) [Example 92-21, (M)-2-[6-Chloro-4-[(2S,5R)-2,5-dimethyl-4-prop-2-enoyl-piperazin-1-yl]-1-(2-isopropyl-4-methyl-3-pyridyl)-2-oxo-pyrido[2,3-d]pyrimidin-7-yl]benzamide]	0.051 µM	0.637 µM	> 7.5 µM
C=CC(=O)N1C[C@H](C)N(c2nc(=O)n(-c3c(C)ccnc3C(C)C)c3nc(-c4ccccc4C(F)(F)F)c(Cl)cc23)C[C@H]1C (atropisomer, axis not shown; (M)) [Example 92-23, (M)-6-Chloro-4-[(2S,5R)-2,5-dimethyl-4-prop-2-enoyl-piperazin-1-yl]-1-(2-isopropyl-4-methyl-3-pyridyl)-7-[2-(trifluoromethyl)phenyl]pyrido [2,3-d]pyrimidin-2-one]	0.038 µM	0.036 µM	> 7.5 µM
C=CC(=O)N1C[C@H](C)N(c2nc(=O)n(-c3c(C)ccnc3C(C)C)c3nc(-c4c(F)cccc4C(N)=O)c(Cl)cc23)C[C@H]1C (atropisomer, axis not shown; (M)) [Example 92-24, (M)-2-[6-Chloro-4-[(2S,5R)-2,5-dimethyl-4-prop-2-enoyl-piperazin-1-yl]-1-(2-isopropyl-4-methyl-3-pyridyl)-2-oxo-pyrido[2,3-d]pyrimidin-7-yl]-3-fluoro-benzamide]	0.019 µM	0.116 µM	> 7.5 µM
C=CC(=O)N1C[C@H](C)N(c2nc(=O)n(-c3c(C)ccnc3C(C)C)c3nc(-c4ccccc4NC)c(Cl)cc23)C[C@H]1C (atropisomer, axis not shown; (M)) [Example 92-25, (M)-6-Chloro-4-[(2S,5R)-2,5-dimethyl-4-prop-2-enoyl-piperazin-1-yl]-1-(2-isopropyl-4-methyl-3-pyridyl)-7-[2-(methylamino)phenyl]pyrido[2,3-d]pyrimidin-2-one]	0.04 µM	0.016 µM	> 7.5 µM
C=CC(=O)N1C[C@H](C)N(c2nc(=O)n(-c3c(C)ccnc3C(C)C)c3nc(-c4cc(F)cc(F)c4N)c(Cl)cc23)C[C@H]1C (atropisomer, axis not shown; (M)) [Example 92-26, (M)-7-(2-Amino-3,5-difluoro-phenyl)-6-chloro-4-[(2S,5R)-2,5-dimethyl-4-prop-2-enoyl-piperazin-1-yl]-1-(2-isopropyl-4-methyl-3-pyridyl)pyrido [2,3-d]pyrimidin-2-one]	0.101 µM	0.023 µM	> 7.5 µM
C=CC(=O)N1C[C@H](C)N(c2nc(=O)n(-c3c(C)ccnc3C(C)C)c3nc(-c4ccccc4C(=O)NC)c(Cl)cc23)C[C@H]1C (atropisomer, axis not shown; (M)) [Example 92-27, (M)-2-[6-Chloro-4-[(2S,5R)-2,5-dimethyl-4-prop-2-enoyl-piperazin-1-yl]-1-(2-isopropyl-4-methyl-3-pyridyl)-2-oxo-pyrido[2,3-d]pyrimidin-7-yl]-N-methyl-benzamide]	0.149 µM	0.735 µM	> 7.5 µM
C=CC(=O)N1C[C@H](C)N(c2nc(=O)n(-c3c(C)ccnc3C(C)C)c3nc(-c4ccccc4C(=O)N(C)C)c(Cl)cc23)C[C@H]1C (atropisomer, axis not shown; (M)) [Example 92-28, (M)-2-[6-Chloro-4-[(2S,5R)-2,5-dimethyl-4-prop-2-enoyl-piperazin-1-yl]-1-(2-isopropyl-4-methyl-3-pyridyl)-2-oxo-pyrido[2,3-d]pyrimidin-7-yl]-N,N-dimethyl-benzamide]	0.123 µM	0.11 µM	> 7.5 µM
C=CC(=O)N1C[C@H](C)N(c2nc(=O)n(-c3c(C)ccnc3C(C)C)c3nc(-c4ccccc4C(=O)O)c(Cl)cc23)C[C@H]1C (atropisomer, axis not shown; (M)) [Example 92-29, (M)-2-[6-Chloro-4-[(2S,5R)-2,5-dimethyl-4-prop-2-enoyl-piperazin-1-yl]-1-(2-isopropyl-4-methyl-3-pyridyl)-2-oxo-pyrido[2,3-d]pyrimidin-7-yl]benzoic acid]	0.139 µM	10 µM	> 7.5 µM
C=CC(=O)N1C[C@H](C)N(c2nc(=O)n(-c3c(C)ccnc3C(C)C)c3nc(-c4cc(F)c(F)cc4N)c(Cl)cc23)C[C@H]1C (atropisomer, axis not shown; (M)) [Example 92-31, (M)-7-(2-Amino-4,5-difluoro-phenyl)-6-chloro-4-[(2S,5R)-2,5-dimethyl-4-prop-2-enoyl-piperazin-1-yl]-1-(2-isopropyl-4-methyl-3-pyridyl)pyrido [2,3-d]pyrimidin-2-one]	0.014 µM	0.022 µM	> 7.5 µM
C=CC(=O)N1C[C@H](C)N(c2nc(=O)n(-c3c(C)ccnc3C(C)C)c3nc(-c4ccccc4NS(C)(=O)=O)c(Cl)cc23)C[C@H]1C (atropisomer, axis not shown; (M)) [Example 92-32, (M)-N-[2-[6-Chloro-4-[(2S,5R)-2,5-dimethyl-4-prop-2-enoyl-piperazin-1-yl]-1-(2-isopropyl-4-methyl-3-pyridyl)-2-oxo-pyrido[2,3-d]pyrimidin-7-yl]phenyl] methanesul-fonamide]	0.075 µM	0.129 µM	> 7.5 µM
C=CC(=O)N1C[C@H](C)N(c2nc(=O)n(-c3c(C)ccnc3C(C)C)c3nc(-c4ccccc4S(N)(=O)=O)c(Cl)cc23)C[C@H]1C (atropisomer, axis not shown; (M)) [Example 92-33, (M)-2-[6-Chloro-4-[(2S,5R)-2,5-dimethyl-4-prop-2-enoyl-piperazin-1-yl]-1-(2-isopropyl-4-methyl-3-pyridyl)-2-oxo-pyrido[2,3-d]pyrimidin-7-yl] benzenesul-fonamide]	0.113 µM	0.216 µM	> 7.5 µM
C=CC(=O)N1C[C@H](C)N(c2nc(=O)n(-c3c(C)ccnc3C(C)C)c3nc(-c4cc(O)ccc4F)c(Cl)cc23)C[C@H]1C (atropisomer, axis not shown; (M)) [Example 92-34, (M)-6-Chloro-4-[(2S,5R)-2,5-dimethyl-4-prop-2-enoyl-piperazin-1-yl]-7-(2-fluoro-5-hydroxy-phenyl)-1-(2-isopropyl-4-methyl-3-pyridyl)pyrido [2,3-d]pyrimidin-2-one]	0.054 µM	0.06 µM	> 7.5 µM
C=CC(=O)N1C[C@H](C)N(c2nc(=O)n(-c3c(C)ccnc3C(C)C)c3nc(-c4ccccc4[N+](=O)[O-])c(Cl)cc23)C[C@H]1C (atropisomer, axis not shown; (M)) [Example 92-36, (M)-6-Chloro-4-[(2S,5R)-2,5-dimethyl-4-prop-2-enoyl-piperazin-1-yl]-1-(2-isopropyl-4-methyl-3-pyridyl)-7-(2-nitrophenyl) pyrido[2,3-d]pyrimidin-2-one]	0.275 µM	0.133 µM	1.87 µM
C=CC(=O)N1C[C@H](C)N(c2nc(=O)n(-c3c(C)ccnc3C(C)C)c3nc(-c4cc(Br)ccc4F)c(Cl)cc23)C[C@H]1C (atropisomer, axis not shown; (M)) [Example 92-37, (M)-7-(5-Bromo-2-fluoro-phenyl)-6-chloro-4-[(2S,5R)-2,5-dimethyl-4-prop-2-enoyl-piperazin-1-yl]-1-(2-isopropyl-4-methyl-3-pyridyl)pyrido [2,3-d]pyrimidin-2-one]	0.048 µM	0.06 µM	> 7.5 µM
C=CC(=O)N1C[C@H](C)N(c2nc(=O)n(-c3c(C)ccnc3C(C)C)c3nc(-c4cc(C#CC)ccc4F)c(Cl)cc23)C[C@H]1C (atropisomer, axis not shown; (M)) [Example 92-39, (M)-6-Chloro-4-[(2S,5R)-2,5-dimethyl-4-prop-2-enoyl-piperazin-1-yl]-7-(2-fluoro-5-prop-1-ynyl-phenyl)-1-(2-isopropyl-4-methyl-3-pyridyl)pyrido [2,3-d]pyrimidin-2-one]	0.032 µM	0.145 µM	> 7.5 µM
